In the test the test system is human monocytic cell line U937. Description: Human U937 cellular necroptosis assay (TNFalpha + z-VAD-FMK, Cell Titer-Glo viability). In kind it is cell-based. The note with it: Homo sapiens, U-937, 22 h, U937 cells, 25 ng/mL human TNFalpha + 25 μM z-VAD-FMK, read-out: hU937 Avg IC50. On the procedure: The human monocytic cell line U937 (CRL-1593.2) was purchased from ATCC. The cells were routinely maintained in RPMI-1640 Medium (Gibco, Catalog #11875-093) supplemented with 10% heat inactivated fetal bovine serum (Gibco, Catalog #16140-071), 100 units/mL penicillin and 100 μg/mL streptomycin (Gibco, Catalog #15140-122), in a humidified incubator (37° C., 5% CO2). For the assay, cells were resuspended in RPMI-1640 phenol red free Media (Gibco, Catalog #11835-030) supplemented with 10% fetal bovine serum (Sigma, Catalog #F2442), 100 units/mL penicillin and 100 ug/mL streptomycin. Cells were stimulated with 25 ng/mL human TNFalpha (Cell Sciences, Catalog #CSI15659B) and 25 μM z-VAD-FMK (R&D Systems, Catalog #FMK001) followed by seeding 5000 cells per well in a volume of 40 μL to a white, CulturPlate-384 (Perkin Elmer, Catalog #6007680). Stock solutions of the test compounds were prepared in 100% DMSO (Sigma, Catalog #D2650) and serially diluted 1:3 using 100% DMSO. Compounds were additionally diluted 1:40 in assay medium, and 10 μL/well was transferred to the plate. Following the compound addition the plate was incubated at 37° C. and 5% CO2 for 22 h. After 22 h, viability was assessed with the addition of 20 μL of Cell Titer-Glo 2.0 (Promega, Catalog #G9243). The tissue culture plate was shaken on an orbital shaker at 300 RPM for 15 minutes at rt in the dark. Luminescence was measured using a PerkinElmer Envision™ plate reader. IC50 values were calculated using a four-parameter logistic curve fit using Genedata Screener software. Results are shown below in Table 3, where the average value across multiple runs is given.
As a reminder, the IC50 is the concentration needed to halve the response being measured. As for `N#Cc1ccc(OCC23CC(C(=O)N4N=CCC4c4cccc(F)c4F)(C2)C3)nc1` (stereo not shown) [Example 270, 6-((3-(5-(2,3-difluorophenyl)-4,5-dihydro-1H-pyrazole-1-carbonyl)bicyclo[1.1.1]pentan-1-yl)methoxy)nicotinonitrile], the IC50 was 16 nM.

On to `Cc1cnc(C2CC=NN2C(=O)C23CC(Cn4ncc5nc(C#N)ccc54)(C2)C3)cn1` (stereo not shown) [Example 235, 1-((3-(5-(5-methylpyrazin-2-yl)-4,5-dihydro-1H-pyrazole-1-carbonyl)bicyclo[1.1.1]-pentan-1-yl)methyl)-1H-pyrazolo[4,3-b]pyridine-5-carbonitrile], for which the IC50 worked out at 339 nM. Then `C[C@H](NC(=O)C12CC(COc3cnc(C#N)cn3)(C1)C2)c1cc(F)ccc1F` [Example 297, (S)-3-(((5-cyanopyrazin-2-yl)-oxy)methyl)-N-(1-(2,5-difluorophenyl)ethyl)bicyclo-[1.1.1]pentane-1-carboxamide], with 6060 nM; and `N#Cc1ccc(OCC23CC(C(=O)N4N=CCC4c4cc(F)cc(F)c4)(C2)C3)nn1` (stereo not shown) [Example 323, 6-((3-(5-(3,5-difluorophenyl)-4,5-dihydro-1H-pyrazole-1-carbonyl)bicyclo[1.1.1]pentan-1-yl)methoxy)pyridazine-3-carbonitrile], with 153 nM; and `N#Cc1cnc(OCC23CC(C(=O)N4N=CCC4c4cc(F)cc(F)c4)(C2)C3)nc1` (stereo not shown) [Example 324, 2-((3-(5-(3,5-difluorophenyl)-4,5-dihydro-1H-pyrazole-1-carbonyl)bicyclo[1.1.1]pentan-1-yl)methoxy)pyrimidine-5-carbonitrile], with 166 nM. The result for `N#Cc1ccc2c(cnn2CC23CC(C(=O)N4N=CCC4c4ncc5ccccn45)(C2)C3)c1` (stereo not shown) [Example 247, 1-((3-(5-(imidazo[1,5-a]-pyridin-3-yl)-4,5-dihydro-1H-pyrazole-1-carbonyl)bicyclo[1.1.1]pentan-1-yl)methyl)-1H-indazole-5-carbonitrile] reads 81 nM; that for `N#Cc1ccc2nn(CC34CC(C(=O)N5N=CCC5c5cncc(F)c5)(C3)C4)cc2c1` (stereo not shown) [Example 127, 2-((3-(5-(5-fluoropyridin-3-yl)-4,5-dihydro-1H-pyrazole-1-carbonyl)bicyclo[1.1.1]-pentan-1-yl)methyl)-2H-indazole-5-carbonitrile], 1260 nM; that for `N#Cc1cnc(OCC23CC(C(=O)N4[C@@H]5C[C@@H]5C[C@H]4c4cc(F)cc(F)c4)(C2)C3)cn1` [Example 209, 5-((3-((1R,3S,5R)-3-(3,5-difluorophenyl)-2-azabicyclo[3.1.0]hexane-2-carbonyl)bicyclo[1.1.1]pentan-1-yl)methoxy)pyrazine-2-carbonitrile], 362 nM.

As to `N#Cc1cnc(OCC23CC(C(=O)N4N=CCC4c4ccc(C(F)(F)F)cc4)(C2)C3)cn1` (stereo not shown) [Example 312, 5-((3-(5-(4-(trifluoromethyl)-phenyl)-4,5-dihydro-1H-pyrazole-1-carbonyl)bicyclo-[1.1.1]pentan-1-yl)methoxy)-pyrazine-2-carbonitrile], the IC50 is 62 nM. Regarding `Cc1ccc(C2CC=NN2C(=O)C23CC(Cn4ncc5cc(C#N)ccc54)(C2)C3)c(F)c1` (stereo not shown) [Example 238, 1-((3-(5-(2-fluoro-4-methyl-phenyl)-4,5-dihydro-1H-pyrazole-1-carbonyl)bicyclo-[1.1.1]pentan-1-yl)methyl)-1H-indazole-5-carbonitrile], the concentration for half-maximal inhibition (IC50) is 8.4 nM.

Consider `N#Cc1ccc(OCC23CC(C(=O)N4N=CCC4c4cccc(Cl)c4Cl)(C2)C3)nc1` (stereo not shown) [Example 290, 6-((3-(5-(2,3-dichlorophenyl)-4,5-dihydro-1H-pyrazole-1-carbonyl)bicyclo[1.1.1]pentan-1-yl)methoxy)nicotinonitrile], for which the IC50 worked out at 445 nM.

Regarding `N#Cc1cnc(OCC23CC(C(=O)NCc4cc(F)ccc4F)(C2)C3)cn1` [Example 298, 3-(((5-cyanopyrazin-2-yl)oxy)-methyl)-N-(2,5-difluoro-benzyl)bicyclo[1.1.1]pentane-1-carboxamide], the IC50 came out at 6700 nM. As to `O=C(N1N=CCC1c1cc(F)cc(F)c1)C12CC(COc3ncc(Cl)cn3)(C1)C2` (stereo not shown) [Example 322, (3-(((5-chloropyrimidin-2-yl)oxy)methyl)bicyclo[1.1.1]-pentan-1-yl)(5-(3,5-difluoro-phenyl)-4,5-dihydro-1H-pyrazol-1-yl)methanone], the IC50 was determined as 60 nM.

`N#Cc1ccc(OCC23CC(C(=O)N4N=CCC4c4ncccc4F)(C2)C3)nc1` (stereo not shown) [Example 303, 6-((3-(5-(3-fluoropyridin-2-yl)-4,5-dihydro-1H-pyrazole-1-carbonyl)bicyclo[1.1.1]-pentan-1-yl)methoxy)-nicotinonitrile]: the IC50 came out at 500 nM. Turning to `N#Cc1ccc(OCC23CC(C(=O)N4CC(F)CC4c4cccc(F)c4)(C2)C3)nc1` (stereo not shown) [Example 288, 6-((3-(4-fluoro-2-(3-fluoro-phenyl)pyrrolidine-1-carbonyl)bicyclo[1.1.1]pentan-1-yl)methoxy)nicotinonitrile], the IC50 amounted to 276 nM. Regarding `Cc1ccc(C2CC=NN2C(=O)C23CC(COc4cnc(C#N)cn4)(C2)C3)cn1` (stereo not shown) [Example 289, 5-((3-(5-(6-methylpyridin-3-yl)-4,5-dihydro-1H-pyrazole-1-carbonyl)bicyclo[1.1.1]-pentan-1-yl)methoxy)pyrazine-2-carbonitrile], the IC50 was determined as 281 nM. For the compound `Cc1ccc(C2CC=NN2C(=O)C23CC(COc4cnc(C#N)cn4)(C2)C3)nc1` (stereo not shown) [Example 278, 5-((3-(5-(5-methylpyridin-2-yl)-4,5-dihydro-1H-pyrazole-1-carbonyl)bicyclo[1.1.1]-pentan-1-yl)methoxy)pyrazine-2-carbonitrile], the IC50 was found to be 97 nM. With `N#Cc1cc2cnn(CC34CC(C(=O)N5N=CCC5c5cc(F)cc(F)c5)(C3)C4)c2cc1Cl` (stereo not shown) [Example 214, 6-chloro-1-((3-(5-(3,5-difluorophenyl)-4,5-dihydro-1H-pyrazole-1-carbonyl)-bicyclo[1.1.1]pentan-1-yl)-methyl)-1H-indazole-5-carbonitrile], the IC50 was found to be 71 nM. As for `N#Cc1cnc(NCC23CC(C(=O)N4N=CCC4c4cc(F)cc(F)c4)(C2)C3)cn1` (stereo not shown) [Example 205, 5-(((3-(5-(3,5-Difluorophenyl)-4,5-dihydro-1H-pyrazole-1-carbonyl)bicyclo[1.1.1]pentan-1-yl)methyl)amino)pyrazine-2-carbonitrile], the IC50 is 436 nM. The result for `N#Cc1ccc2c(cnn2CC23CC(C(=O)N4N=CCC4c4ncccn4)(C2)C3)c1` (stereo not shown) [Example 259, 1-((3-(5-(pyrimidin-2-yl)-4,5-dihydro-1H-pyrazole-1-carbonyl)bicyclo[1.1.1]pentan-1-yl)methyl)-1H-indazole-5-carbonitrile] reads 5450 nM. Then `Cc1ccc(C2CC=NN2C(=O)C23CC(Cn4ncc5cc(C#N)ccc54)(C2)C3)cc1F` (stereo not shown) [Example 239, 1-((3-(5-(3-fluoro-4-methyl-phenyl)-4,5-dihydro-1H-pyrazole-1-carbonyl)bicyclo-[1.1.1]pentan-1-yl)methyl)-1H-indazole-5-carbonitrile], with 10 nM; and `CC1CCN(C(=O)C23CC(COc4cnc(C#N)cn4)(C2)C3)C1c1ccccc1` (stereo not shown) [Example 302, 5-((3-(3-methyl-2-phenyl-pyrrolidine-1-carbonyl)-bicyclo[1.1.1]pentan-1-yl)-methoxy)pyrazine-2-carbonitrile], with 9870 nM.

These data come from US20250214942A1, “INHIBITORS OF RECEPTOR INTERACTING PROTEIN KINASE I FOR THE TREATMENT OF DISEASE” (Board of Regents, The University of Texas System, priority 2019, published 2025).
